Measurements from patent USRE43712E1, “Methods for assaying for antidepressant therapy markers” (The Board of Trustees of the Uniersity of Illinois, priority 2000, dated 2012).
“And” between values parts separate entries of the source, which are not always exact repeats. Identical values can stand only once. “Also recorded” adds a separate entry of the source. Marks after values point to notes of the source that are not given here.

What was measured:
Gsα [1] = assay: Cellular localization of Gsα in C6-2B cells, immunofluorescence laser scanning confocal microscopy; format: cell-based; details: for Cells displaying intense Gsα staining at the process tips (and processes): control 64%
Description: C6-2B cells (between passages 30 and 50) were plated onto coverslips and allowed to attach overnight in Dulbecco's modified Eagle's medium. 4.5 g/l glucose, 10% bovine serum, and 100 μg/ml penicillin and streptomycin at 37° C. in a humidified 10% CO2 atmosphere. […] Therefore, the latter treatment paradigm was used in these experiments because it was easier to maintain the cell cultures for 3 days. […] The culture media and drug were changed daily. […] After the treatment duration, the cells were incubated in drug-free media for 45 to 60 minutes before fixation.
After treatment, cells were washed once with phosphate-buffered saline (PBS, […] NaCl, 2.6 mM KCl, 5.4 mM NaαPO4 7H2O, pH 7.4) and fixed with ice-cold methanol for 10 minutes. Cells were then washed three times with PBS followed by 2 h of blocking in 5% normal goat serum/0.2% fish skin gelatin in PBS. Primary antibody was added for 1.5 h, Gsα/RM1 (PerkinElmer Life Sciences, Boston, Mass.) 1:50 and Goα (Santa Cruz Biotechnology, Santa Cruz, Calif.) 2 μg/ml, followed by three washes with PBS. Oregon Green-labeled secondary antibody (Molecular Probes, Eugene, Oreg.) was added at a concentration of 8 μg/ml for 1 h followed by three PBS washes. The coverslips were mounted onto slides with Vectashield (Vector Laboratories. Burlingame, Calif.) containing diamidino-2-phenylindole as a mounting medium. Images were acquired using a Zeiss LSM510 laser-scanning confocal microscope (Carl Zeiss Inc., Thornwood, N.Y.). A single 488-nm beam from an argon/krypton laser was used for excitation of the Oregon Green. Differential interference contrast images were also acquired. Five experiments were performed and coverslips were examined. Approximately 2100 cells from control and desipramine-treated coverslips were counted by two investigators blind to the experimental conditions over the course of the five experiments.
The cellular distribution of Gsα was quantified in confocal imaged C6-2B cells using NIH-Image software (http://rsbinfonihpov/nih-image) as describe previously [Southwell et al., Cell Tissue Res., 292:37-45, 1998; Jenkinson et al., Br. J. Pharmacol., 126:131-136, 1999]. Images of 9×1 μm optical, planar sections taken from four randomly selected control and four randomly selected desipramine-treated cells were captured and the middle five sections from each cell were quantified. Total cellular Gsα fluorescence was measured by counting the number of pixels with intensity above threshold (determined by minimum intensity above background in this case 50 pixels). The areas of intensity were numbered and divided visually into those localized to the cell body and those localized to the processes and process tips. The total from each region was divided by the total cell pixel intensity and expressed as a percentage of the total. This was done for each section of each cell and the sections were averaged per cell to give an average percentage total per cell.
In a separate investigation, seven sets of 300 cells each from control group and desipramine-treated cells from five experiments were counted to determine the primary localization (processes and process tips or cell body) of Gsα within these cells. The majority of the cells stained positively for Gsα throughout the entire cell, but there was usually an enhancement in one of these regions. […] The counts are expressed as the ratio of process and process tip localization/cell body localization.
Studies were conducted to determine whether a shift in cellular localization of Gsα occurred in C6-2B cells subjected to antidepressants.
Twenty-one hundred cells from each group (control versus desipramine-treated) over a series of five experiments were examined to quantify the extent of the antidepressant effect. […] Abnormal cells or those not displaying processes were not included in the cell count. Cells (300-450) were counted per experiment and the ratio of category A cells to category B cells for each group is shown in FIG. 8. […]

Gsα [2] = assay: Detergent extraction of Gsα from rat synaptic membrane after chronic antidepressant treatment; format: in vivo; details: for GsαL in the Triton X-100 extract versus control / GsαL in the Triton X-114 extract versus control: rat synaptic membrane, 21 days treatment
Description: C6-2B cells (between passages 20 and 40) were grown in 175-cm^2 flasks in Dulbecco's modified Eagle medium, 4.5 g of glucose/L, 10% bovine serum, in a 10% CO2 atmosphere, at 37° C. for 3 days after splitting. […] Male Sprague-Dawley rats weighing 150-200 g were fed ad libitum and maintained in a 12-h light/dark cycle. […] 36:803-838, 1989]. […] Rat cerebral cortex membranes were prepared according to the method of Rasenick et al. [Nature, 294:560-562; 1981].
Membrane proteins were extracted sequentially from C6-2B or rat synaptic membranes as described [Yan et al., J. Neurochem., 66:1489-1495; 1996]. These membranes were stirred on ice in HEPES (15 mM, pH 7.4) containing 1% Triton X-100 for 60 min followed by centrifugation at 100,000 g for 60 min at 4° C. The supernatant was reserved (Triton X-100 extract), and the resulting pellet was resuspended in Tris (15 mM, pH 7.4) containing 1.4% Triton X-114 and 150 mM NaCl. The solution was stirred for 60 min at 4° C. and centrifuged for 30 min at 100,000 g in the cold. The supernatant was saved (Triton X-114 extract). These supernatants and remaining pellet (remainder) were subjected to sodium dodecyl sulfate (SDS)-polyacrylamide gel electophoresis (PAGE) using 10% gels. All of the extraction buffers contained 1 mM PMSF and 1 mM EGTA.
Rat cortex membrane, C6-2B cell membranes, or Triton extracts of each membrane preparation were subjected to SDS-PAGE followed by electrotransfer to polyvinylidene difluoride (PVDF) membrane. The PVDF membrane was incubated with a phosphate-buffered saline/Tween 20 Buffer (140 mM NaCl, […]. 0.1% Tween 20, pH 7.4) and 3% bovine serum albumin. The membrane was then incubated with polyclonal rabbit antisera against the various G protein subunits [RM (Gsα) or 116 (Gi1, Gi2, Gi3α)] at a 1:25,000 (RM) or 1:5,000 (116) dilution (see below for source of antibodies). […] Immunoreactivity was detected with an enhanced chemiluminescence (ECL) western blot detection system (Amersham) in accord with the manufacturer's instructions. The developed autoradiographs were analyzed by densitometry.
Rats were treated with antidepressant via intraperitoneal injection once daily for 21 days, control animals received an equal number and volume of injection of saline. Cerebral cortices from each group were removed. Rat synaptic membrane-enriched fractions were prepared (see Example 1). The ratios of the percentage of Gsα extracted by the two detergents in the treatment versus control groups were compared and are set forth in Table 3 as percentage of control (i.e., each Triton X-100 extract was compared with the untreated Triton X-100 extract, the same was comparison was undertaken for Triton X-114 extracts as well as the remainder). The values shown are means±standard error of the mean of 4-6 experiments.

[3] = 10 μM desipramine 3 days, individual cells D1-D4
[4] = rat cerebral cortex synaptic membrane, 10 mg/kg i.p. once daily for 21 days, mean ± SEM of 4-6 experiments

Row | Compound | Decrease in Gsα localization to the processes and process tips, control versus treated cells (Gsα [1]; 10 μM desipramine 3 days) | Percentage of Gsα immunofluorescence distribution, Processes, Average (Gsα [1]; 10 μM desipramine 3 days, average of four cells, control 12.0 ± 5.7) | Percentage of Gsα immunofluorescence distribution, Processes, Average (Gsα [1]; 10 μM desipramine 3 days, average of four cells, control 12.0 ± 5.7, listed as desipramine) | Percentage of Gsα immunofluorescence distribution, Cell Body, Average (Gsα [1]; 10 μM desipramine 3 days, average of four cells, control 88.0 ± 5.7) | Percentage of Gsα immunofluorescence distribution, Cell Body, single cells (Gsα [1]; [3]) | Percentage of Gsα immunofluorescence distribution, Processes, single cells (Gsα [1]; [3]) | Gsα immunofluorescence in cell processes and process tips (Gsα [1]; 10 μM, 3 days) | Gsα in the cell body (Gsα [1]; 10 μM, 3 days) | Cells displaying intense Gsα staining at the process tips (and processes) (Gsα [1]; 10 μM, 3 days) | GsαL in Triton X-100 extract, % of corresponding value in control group (Gsα [2]; [4]) | GsαL in Triton X-114 extract, % of corresponding value in control group (Gsα [2]; [4]) | GsαS in Remainder, % of corresponding value in control group (Gsα [2]; [4]) | GsαS in Triton X-100 extract, % of corresponding value in control group (Gsα [2]; [4]) | GsαS in Triton X-114 extract, % of corresponding value in control group (Gsα [2]; [4]) | GsαL in the Triton X-100 extract versus control (Gsα [2]) | GsαL in the Triton X-114 extract versus control (Gsα [2]) | GsαL in Remainder, % of corresponding value in control group (Gsα [2]; [4])
1 | CNCCCN1c2ccccc2CCc2ccccc21 [Desipramine, desipramine] | three-fold decrease | 4.1 ± 4.7% | 4% | 95.9 ± 4.7% | 91.4% and 92.2% and 100.0% (2×) | 8.6% and 7.8% and 0.0% (2×) | drastically reduced; also recorded: decrease in the cell processes and process tips | increase | 32% | 128.2 ± 9.5^a % | 77.3 ± 8.8^a % | 84.9 ± 25.7% | 146.4 ± 9.6^b % | 71.7 ± 6.8^a % | significant increase | concomitant decrease | 
2 | CNCCC(Oc1ccc(C(F)(F)F)cc1)c1ccccc1 (centres unmarked) [Fluoxetine, fluoxetine] |  |  |  |  |  |  | loss of staining in the processes and process tips; also recorded: drastic reduction |  | 45% | 118.1 ± 3.4^a % | 81.9 ± 4.5^a % | 45.2 ± 8.4^a % | 153.8 ± 39.9% | 91.6 ± 6.3% | significant increase | concomitant decrease | 53.8 ± 6.9^a %
